In US6884415B2, “Antioxidation food product, antioxidation preparation and antioxidation method” (Otsuka Pharmaceutical Co., Ltd., priority 1993, dated 2005):

Molecular target: T1, MPO (myeloperoxidase) (Homo sapiens, UniProt P05164)
T1 sequence (P05164 49-745): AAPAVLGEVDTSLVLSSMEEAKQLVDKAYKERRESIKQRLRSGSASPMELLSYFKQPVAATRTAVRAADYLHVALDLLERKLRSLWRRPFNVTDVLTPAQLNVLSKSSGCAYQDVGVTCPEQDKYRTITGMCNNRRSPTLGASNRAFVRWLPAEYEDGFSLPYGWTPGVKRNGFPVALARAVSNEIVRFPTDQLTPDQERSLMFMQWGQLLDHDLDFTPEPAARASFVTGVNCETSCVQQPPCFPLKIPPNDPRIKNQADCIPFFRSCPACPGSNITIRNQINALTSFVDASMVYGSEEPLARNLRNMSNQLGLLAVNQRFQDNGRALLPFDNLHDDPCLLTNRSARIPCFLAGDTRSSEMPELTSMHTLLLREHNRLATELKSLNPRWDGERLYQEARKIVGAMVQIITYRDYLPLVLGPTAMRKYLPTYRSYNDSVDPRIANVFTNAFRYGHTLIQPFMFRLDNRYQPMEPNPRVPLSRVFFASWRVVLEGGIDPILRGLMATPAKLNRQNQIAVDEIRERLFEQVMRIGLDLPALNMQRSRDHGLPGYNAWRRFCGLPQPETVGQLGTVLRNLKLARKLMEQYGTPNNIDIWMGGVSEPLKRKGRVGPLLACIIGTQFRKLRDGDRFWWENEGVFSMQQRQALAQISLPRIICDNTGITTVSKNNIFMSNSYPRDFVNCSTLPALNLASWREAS
Assay: MPO (myeloperoxidase) activity inhibition
Type: biochemical
Conditions: MPO purified enzyme, pH 5.4, 25° C.
Procedure: To 2.9 ml of a 50 mM phosphate buffer (pH: 5.4) containing 0.1% hydrogen peroxide and 1.03 mM o-dianisidine, 50 μl of a test solution and 50 μl of a MPO purified enzyme (1.24 units/ml) were added and, after incubating in a cuvet at 25° C., measuring a change in absorbance (λ: 450 nm) was measured for 5 minutes. As a blank, 50 μl of a 50 mM phosphate buffer (pH: 5.4) was used.
As the test solution, a tea extract solution obtained by extracting a green tea with hot water and a solution obtained by measuring the concentration of Mn in the tea extract solution and adding MnCl2 in an APT broth so that the concentration of Mn in the medium may be the same as that of the tea extract solution were used. Then, […]
Therefore, it was examined whether the component contained in the tea other than Mn is connected with the MPO activity inhibition or not. That is, according to the same manner as that described above, the MPO inhibition activity was examined using a purified catechin as the component other than Mn.

## catechin
  concentration at which the MPO inhibition effect is exhibited: ≥ 1.5 µg/mL
